Results on six compounds are retold here after paper PMC9043818, “Coordination complexes of zinc and manganese based on pyridine-2,5-dicarboxylic acid N-oxide: DFT studies and antiproliferative activities consideration” (RSC Advances, 2021).

Read-outs that look alike come from different tables or passages of the source.

The subject of assay [1] is mouse fibroblast L-929 cell line. As to the kind of experiment: MTT assay, normal cell line L929. The following applies: IC50 > 100 μM considered inactive, read-out: IC50 ± SD L929. The assay is classed as cell-based. On the procedure:
(§1) Human breast cancer cells MDA-MD-231 (ATCC HTB-26), human breast cancer cells MCF-7 (ATCC HTB-22), human cervix epithelial carcinoma HeLa (ATCC CCL-2), human colon cancer cell line HT-29 (ATCC HTB-38), mouse neuroblastoma cell line Neuro-2a (ATCC CCL-131) and mouse fibroblast L-929 cell line (ATCC CCL-1) were obtained from the American Type Culture Collection (ATCC; Manassas, VA, USA) and cultured at 37 °C in a humidified atmosphere of 5% CO2 in air. HeLa cells were cultured in Dulbecco's Modified Eagle's Medium (DMEM) with 0.1 mM nonessential amino acids, 2 mM L-glutamine, 1.0 mM sodium pyruvate and 5% fetal bovine serum, at 37 °C in an atmosphere of 5% CO2. Cells were plated in 96-well sterile plates at a density of 1 × 10^4 cells per well in 100 μL of medium and incubated for 24 h. Also MDA-MD-231, HT-29, MCF-7 and Neuro-2a were cultured in DMEM containing 10% fetal bovine serum, 100 units per ml of penicillin and 100 μg ml^−1 of streptomycin. L-929 cells were cultured in RPMI-1640 medium containing 10% fetal bovine serum, 100 units per ml of penicillin and 100 μg ml^−1 of streptomycin.
(§2) Complexes 1–3 ([Mn2(pydco)2(bpy)2(H2O)2]·2H2O (1), [Zn(bpy)(Hpydco)2] (2) and [Zn(bpy)Cl(Hpydco)]·2H2O (3)) were screened for antiproliferative activity against human breast cancer cells (MDA-MD-231), human cervix epithelial carcinoma (HeLa), human colon cancer cell line (HT-29), human breast cancer cells (MCF-7), mouse neuroblastoma cell line (Neuro-2a) and mouse fibroblast L-929 cell line using cisplatin as a comparative standard. Cell viability was evaluated by a colorimetric method based on the tetrazolium salt MTT ([3-(4,5-dimethylthiazol-2-yl)-2,5-diphenyltetrazolium bromide]), which is reduced by living cells to yield purple formazan crystals. Cells were seeded in 96-well plates at a density of 2–5 × 10^4 cells of MDA-MD-231, MCF-7, HeLa, HT-29, Neuro-2a and L-929 per well in 200 μL of culture medium and left to incubate overnight for optimal adherence. After careful removal of the medium, 200 μL of a dilution series of the complexes in fresh medium were added and incubation was performed at 37 °C/5% CO2 for 72 h. Complexes 1–3 were first solubilized in DMSO, diluted in medium and added to the cells in final concentrations between 20 nM and 200 μM. […] Cisplatin was first solubilized in saline and then added at the same concentrations used for the other complexes. At the end of the incubation period, the complexes were removed, and the cells were incubated with 200 μL of MTT solution (500 μg ml^−1). After 3–4 h at 37 °C/5% CO2, the medium was removed, and the purple formazan crystals were dissolved in 200 μL of DMSO by shaking. The cell viability was evaluated by measurement of the absorbance at 570 nm by using a STAT FAX-2100 microplate reader (Awareness Technology, Palm City, FL, USA). The cell viability was calculated by dividing the absorbance of each well by that of the control wells (cells treated with medium containing 1% DMSO). Each experiment was repeated at least three times and each point was determined in at least three replicates.
(§3) IC50 values are expressed as mean ± standard deviation (SD) from at least three independent experiments. Statistical tests including One way ANOVA, Tukey multiple comparison or unpaired Student's t-tests were performed using SPSS, ver.17 software. A p value of less than 0.05 was considered as significant.
(In general: Formazan colour is commonly taken as a measure of viable cells.)

The subject of assay [2] is mouse neuroblastoma cell line Neuro-2a. The assay is described as follows: MTT antiproliferative assay, Neuro-2a. It counts as cell-based. The note with it: 72 h incubation, mean ± SD. On the procedure: as §1, §2, §3
The test system of assay [3] is MDA-MB-231 cancer cell line. The assay is described as follows: Apoptosis assay by flow cytometry (Annexin V-FITC/PI). It counts as cell-based, human. The following applies: for Apoptotic cells (%) / Late apoptotic/necrotic cells (%) / Necrotic cells (%) / Vital cells (%): MDA-MD-231, 24 h; for Apoptotic cells (%) / Late apoptotic/necrotic cells (%) / Necrotic cells (%) / Vital cells (%) / induction of apoptosis (flow cytometry): concentration close to the IC50; for induction of apoptosis (flow cytometry): MDA-MB-231, 24 h; for population of apoptotic cell, fold higher than cisplatin: at the same concentration as cisplatin. On the procedure:
In order to study in which way 1–3 produced the cellular death (necrosis or apoptosis) studies of flow cytometry were performed on the complexes and cisplatin as a reference. Four areas in the diagrams stand for necrotic cells (Q1, low Annexin V-FITC and high PI signal, left square on the top), late apoptosis or necrosis cells (Q2, high Annexin V-FITC and high PI signal, right square on the top), live cells (Q3, low Annexin V-FITC and low PI signal, left square at the bottom), apoptosis cells (Q4, high Annexin V-FITC and low PI signal, right square at the bottom), respectively.

For assay [4], the system named is human colon cancer cell line HT-29. As to the kind of experiment: MTT antiproliferative assay, HT-29. The assay is classed as cell-based. The following applies: mean ± SD. As to the method:
as §1, §2, §3

In assay [5] the test system is human cervix epithelial carcinoma HeLa. The assay is described as follows: MTT antiproliferative assay, HeLa. The assay is classed as cell-based. The following applies: 72 h incubation, mean ± SD. As to the method:
as §1, §2, §3

Assay [6] deals with human breast cancer cells MCF-7. The assay is described as follows: MTT antiproliferative assay, MCF-7. The assay is classed as cell-based. The following applies: mean ± SD. As to the method: as §1, §2, §3
The test system of assay [7] is human breast cancer cells MDA-MD-231. As to the kind of experiment: MTT antiproliferative assay, MDA-MD-231. The assay is classed as cell-based. The following applies: 72 h incubation, mean ± SD. On the procedure: as §1, §2, §3
In assay [8] the test system is MDA-MB-231 breast cancer cells. As to the kind of experiment: TUNEL assay (dUTP-FITC, confocal microscopy). The following applies: MDA-MB-231, 24 h, vs 0.3% DMSO controls. It counts as cell-based, human. On the procedure:
Analysis of apoptosis for 2 and 3 by cytometry using TUNEL assay. Also, apoptosis was detected using an in situ cell death detection kit (Boehringer Mannheim Corp., Indianapolis, IN) as described by Narla et al. and Zhu et al. (Narla et al., 2000;[42] Zhu et al., 1998 (ref. [43])). Cells were incubated with 1–3 in 0.3% DMSO or 1 : […], permeabilized and incubated with the reaction mixture containing TdT- and FITC-conjugated dUTP, and counterstained with propidium iodide. Cells were transferred to slides and viewed with a confocal laser scanning microscope (Bio-Rad MRC 1024) mounted on a Nikon Eclipse E800 series upright microscope as reported previously (Narla et al., 2000;[42] Zhu et al., 1998 (ref. [43])).

In assay [9] the test system is MDA-MD-231, MCF-7, HeLa, HT-29, Neuro-2a and L-929 cell lines. As to the kind of experiment: MTT assay, range over all cell lines. It counts as cell-based. The following applies: 72 h, all six cell lines, read-out: IC50 values, span over all cell lines. On the procedure: Human breast cancer cells MDA-MD-231 (ATCC HTB-26), human breast cancer cells MCF-7 (ATCC HTB-22), human cervix epithelial carcinoma HeLa (ATCC CCL-2), human colon cancer cell line HT-29 (ATCC HTB-38), mouse neuroblastoma cell line Neuro-2a (ATCC CCL-131) and mouse fibroblast L-929 cell line (ATCC CCL-1) were obtained from the American Type Culture Collection (ATCC; Manassas, VA, USA) and cultured at 37 °C in a humidified atmosphere of 5% CO2 in air. HeLa cells were cultured in Dulbecco's Modified Eagle's Medium (DMEM) with 0.1 mM nonessential amino acids, 2 mM L-glutamine, 1.0 mM sodium pyruvate and 5% fetal bovine serum, at 37 °C in an atmosphere of 5% CO2. […]
Complexes 1–3 ([Mn2(pydco)2(bpy)2(H2O)2]·2H2O (1), [Zn(bpy)(Hpydco)2] (2) and [Zn(bpy)Cl(Hpydco)]·2H2O (3)) were screened for antiproliferative activity against human breast cancer cells (MDA-MD-231), human cervix epithelial carcinoma (HeLa), human colon cancer cell line (HT-29), human breast cancer cells (MCF-7), mouse neuroblastoma cell line (Neuro-2a) and mouse fibroblast L-929 cell line using cisplatin as a comparative standard. Cell viability was evaluated by a colorimetric method based on the tetrazolium salt MTT ([3-(4,5-dimethylthiazol-2-yl)-2,5-diphenyltetrazolium bromide]), which is reduced by living cells to yield purple formazan crystals. […]

The mark [10] stands for this setting: experiment for 2 (Table 4), 2 and cisplatin at the same concentration.
Where [11] appears, read: experiment for 3 (Table 5), 3 and cisplatin at the same concentration, MDA-MB-231.
[12] abbreviates: Mus musculus, L929, 72 h incubation.
Where [13] appears, read: Homo sapiens, HT-29, 72 h incubation.
[14] abbreviates: Homo sapiens, MCF7, 72 h incubation.

For orientation: IC50 means the concentration needed to halve the response being measured. Regarding `N.N.[Cl][Pt][Cl]` [Cisplatin, cisplatin, reference compound], the IC50 came to 0.7 ± 0.2 µM in assay [1] (72 h incubation); 103 ± 9.8 µM in [2]; 19.3 ± 3.46 µM in assay [4] (72 h incubation); 0.45 ± 0.13 µM in assay [5]; 5.94 ± 1.47 µM in assay [6] (72 h incubation); 24.7 ± 4.71 µM in assay [7]. Moreover, the “population of apoptotic cell (apoptotic + late apoptotic)” value is recorded as 65.28% in assay [3] (setting [10]) and 35.8% in assay [3] (setting [11]). Also, the “Apoptotic cells (%)” value is listed as 34.65% in [3] (experiment for 2) and 15.80% in assay [3] (experiment for 3). The “Late apoptotic/necrotic cells (%)” value in [3] (experiment for 2) worked out at 30.63%; in assay [3] (experiment for 3), 20.00%. Also, the “Necrotic cells (%)” value is on record as 0.98% in [3] (experiment for 2) and 3.20% in assay [3] (experiment for 3). The results for the “Vital cells (%)” value in [3] (experiment for 2) and in assay [3] (experiment for 3) were 33.74% and 61.00%, respectively.

`O=C(O)c1ccc(C(=O)O)[n+]([O-])c1` [Complex H2pydco, pyridine-2,5-dicarboxylic acid N-oxide]: the concentration for half-maximal inhibition (IC50) was greater than 100 µM in [1] (setting [12]); greater than 100 µM in [2] (mouse/rat NG108-15, N2a); 58.9 ± 5.01 µM in [4] (setting [13]); 67.1 ± 5.45 µM in assay [5] (Homo sapiens, HeLa); 57.9 ± 5.33 µM in [6] (setting [14]); 45.7 ± 4.75 µM in assay [7] (Homo sapiens).

As to `c1ccc(-c2ccccn2)nc1` [bpy, 2,2′-bipyridine, reference compound], the concentration for half-maximal inhibition (IC50) is greater than 100 µM in assay [1] (setting [12]); 97.3 ± 8.7 µM in assay [2] (mouse/rat NG108-15, N2a); 67.8 ± 5.54 µM in [4] (setting [13]); 46.5 ± 4.03 µM in assay [5] (Homo sapiens, HeLa); 51.3 ± 4.78 µM in [6] (setting [14]); 24.9 ± 1.98 µM in assay [7] (Homo sapiens).

“[Mn2(pydco)2(bpy)2(H2O)2]·2H2O [Complex 1]”: the 50% inhibitory concentration (IC50) was greater than 100 µM in assay [1] (72 h incubation); 79.5 ± 8.44 µM in assay [2]; 57.9 ± 4.71 µM in assay [4] (72 h incubation); 39.2 ± 2.98 µM in assay [5]; 56.6 ± 7.78 µM in [6] (72 h incubation); 28.9 ± 2.47 µM in assay [7].

[Zn(bpy)(Hpydco)2] [Complex 2]: the IC50 in [1] (72 h incubation) is greater than 100 µM; in assay [9], 5.94 to 100 µM; in assay [2], 81.2 ± 9.28 µM; in [4] (72 h incubation) it was 17.3 ± 2.57 µM; in [5], 41.2 ± 5.07 µM; in assay [6] (72 h incubation), 15.6 ± 3.24 µM. In addition, 5.94 ± 1.98 µM corresponded to half-maximal inhibition in [7] (IC50). Further, the “induction of apoptosis (TUNEL, apoptotic nuclei)” value in [8] was “induce apoptosis”. The “induction of apoptosis (flow cytometry)” value in [3] is listed as “could induce apoptosis”. For the same compound, the “population of apoptotic cell, fold higher than cisplatin” value in assay [3] (MDA-MB-231) is roughly 1.2 fold. In assay [3] (setting [10]), the “population of apoptotic cell (apoptotic + late apoptotic)” value is given as 79.45%. Also, the “Apoptotic cells (%)” value in assay [3] (experiment for 2) stood at 43.91%. Besides, in assay [3] (experiment for 2), the “Late apoptotic/necrotic cells (%)” value was determined as 35.54%. Moreover, the “Necrotic cells (%)” value in assay [3] (experiment for 2) amounted to 0.82%. The “Vital cells (%)” value in [3] (experiment for 2) is reported as 19.73%.

Regarding [Zn(bpy)Cl(Hpydco)]·2H2O [Complex 3], the IC50 is greater than 100 µM in [1] (72 h incubation); 5.94 to 100 µM in assay [9]; 87.7 ± 6.93 µM in [2]; 14.6 ± 3.55 µM in assay [4] (72 h incubation); 37.6 ± 4.61 µM in assay [5]; 17.9 ± 2.66 µM in assay [6] (72 h incubation). In assay [7], the IC50 is 9.18 ± 2.25 µM. Further, in assay [8], the “induction of apoptosis (TUNEL, apoptotic nuclei)” value is “induce apoptosis”. The “induction of apoptosis (flow cytometry)” value in assay [3] is “could induce apoptosis”. Further, the “population of apoptotic cell, fold higher than cisplatin” value in assay [3] (MDA-MB-231) was roughly 1.8 fold. The “population of apoptotic cell (apoptotic + late apoptotic)” value in assay [3] (setting [11]) came to 63.3%. For the same compound, the “Apoptotic cells (%)” value in [3] (experiment for 3) was found to be 4.30%. Also, in assay [3] (experiment for 3), the “Late apoptotic/necrotic cells (%)” value is 59.00%. In [3] (experiment for 3), the “Necrotic cells (%)” value stood at 4.70%. Also, the “Vital cells (%)” value in assay [3] (experiment for 3) is given as 32.00%.
